Data: patent US10206908B2, “3-(1H-pyrrolo[3,2-C]pyridin-2-YL)-1H-pyrazolo[3,4-C]pyridines and therapeutic uses thereof” (Samumed, LLC, priority 2015, dated 2019)

Tests used:
Format in all cases: cell-based
[1] = test system: Wnt activity (Sp5-Luc reporter, SW480 colon carcinoma cells); experiment: Screening assay for Wnt activity: Sp5-Luc reporter gene assay in SW480 colon carcinoma cells; conditions: Homo sapiens; for EC50: Sp5-Luc reporter, SW480 cells, overnight incubation; for inhibition at 10 µM: SW480, read-out: percent inhibition at 10 μM
Text: The screening assay for Wnt activity is described as follows. Reporter cell lines can be generated by stably transducing cancer cell lines (e.g., colon cancer) or primary cells (e.g., IEC-6 intestinal cells) with a lentiviral construct that includes a Wnt-responsive promoter driving expression of the firefly luciferase gene.
SW480 colon carcinoma cells were transduced with a lentiviral vector expressing luciferase with a human Sp5 promoter consisting of a sequence of eight TCF/LEF binding sites. SW480 cells stably expressing the Sp5-Luc reporter gene and a hygromycin resistance gene were selected by treatment with 150 μg/mL of hygromycin for 7 days. These stably transduced SW480 cells were expanded in cell culture and used for all further screening activities. […] For Sp5-Luc reporter gene assays, the cells were plated at 4,000 cells/well in 384-well plates with medium containing 1% fetal bovine serum and incubated overnight at 37° C. and 5% CO2. Following incubation, 20 μl of BrightGlo luminescence reagent (Promega) was added to each well of the 384-well assay plates. The plates were placed on an orbital shaker for 2 min and then luminescence was quantified using the Envision (Perkin Elmer) plate reader. Readings were normalized to DMSO only treated cells, and normalized activities were utilized for EC50 calculations using the dose-response log (inhibitor) vs. response-variable slope (four parameters) nonlinear regression feature available in GraphPad Prism 5.0 (or Dotmatics).

SW480 colon cancer cells = experiment: Cell viability assay (CellTiter-Blue) in SW480 colon cancer cells; conditions: Homo sapiens; for EC50: 96 h, SW480 cell viability, four days; for inhibition at 10 µM: SW480, read-out: percent inhibition at 10 μM
Method: Representative compounds were screened using the following assay procedure to assess the effect on cell viability as described below.
Approximately 2×10^3 SW480 colon cancer cells were seeded into each well and allowed to incubate in the presence or absence of compound for four days at 37° C./5% CO2. Eight replicates of DMSO-treated cells served as controls and cells treated with compound were performed in duplicate.
After incubation, 20 μL of CellTiter-Blue (Promega) was added to each well allowed to incubate for approximately 3 hours. This reagent was a buffered solution which contains resazurin, metabolically active cells were able to reduce rezarurin (blue) into resorufin (pink) which was highly fluorescent. This measured fluorescence was used as a readout for cell viability.

[2] = test system: primary human fibroblasts derived from IPF patients (LL29 cells) treated with TGF-β1; experiment: Inhibition of the fibrotic process: αSMA staining in TGF-β1 treated LL29 fibroblasts; conditions: Fibroblast, 96 h, % αSMA positive LL29 cells, TGF-β1 20 ng/mL, 4 days
Method: Representative compounds were screened using primary human fibroblasts (derived from IPF patients) treated with TGF-β1 to determine their ability to inhibit the fibrotic process.
LL29 cells are plated at 1,500 cells/well in 80 μL/well F12 medium supplemented with 1% Fetal Bovine Serum. […] Wells treated with TGF-β1 and containing DMSO were used as controls. […] Following incubation for 4 days, SYTOX green nucleic acid stain (Life Technologies [Thermo Fisher Scientific]) was added to the wells at a final concentration of 1 μM and incubated at room temperature for 30 min.

[3] = test system: primary human mesenchymal stem cells (hMSCs); experiment: Induction of chondrogenesis in hMSCs (chondrogenic nodules, Rhodamine B/Nile Red); conditions: 6 days; for EC50: concentration required to induce 50% levels of chondrogenesis vs TGF-β3, read-out: Conc (nM) of 50% TGF-β3 activity; for Emax: relative to TGF-β3 (10 ng/mL) positive control, read-out: Max. Activity as % TGF-β3 activity
Text: Representative compounds were screened using primary human mesenchymal stem cells (hMSCs) to determine their ability to induce chondrogenesis (process by which cartilage is developed).
Human Mesenchymal Stem Cell Culture: Primary human mesenchymal stem cells (hMSCs) were purchased from Lonza (Walkersville, Md.) and expanded in Mesenchymal Stem Cell Growth Media (Lonza). Cells between passage 3 and 6 were used for the experiments.
Number of nodules in each well was normalized to the average of 3 DMSO treated wells on the same plate using Excel (Microsoft Inc.). The normalized averages (fold change over DMSO) of 3 replicate wells for each compound concentration were calculated. Due to solubility limitations of some of the compounds, curve fitting was incomplete leading to inaccurate EC50 determinations.
Using TGF-β3 as a positive control, the concentration of representative compounds required to induce 50% levels of chondrogenesis is reported. In addition, the maximum activity of each compound and the respective dose that each compound reached maximum chondrogenesis activity is reported.

IL-6 (THP-1 cells) = experiment: IL-6 inhibition in LPS-stimulated THP-1 monocytes (HTRF); conditions: Homo sapiens; for EC50: IL-6, THP-1 cells, LPS 500 ng/mL, 22 hours; for inhibition at 10 µM: THP-1, read-out: percent inhibition at 10 μM
Method: Compound Screening: THP-1 cells were cultured in basal media with 1% FBS for 24 hours before the start of the assay. […] THP-1 cells were plated at 5000 cells/well in the 384-well plates and incubated at 37° C. for 2 h. 500 ng/mL of LPS was added after 2 hours and cells were incubated for another 22 hours at 37° C. Plates were spun in a centrifuge for 1 minute at […] and a mixture of anti-IL6 XL665, and anti-IL6 Cryptate diluted in reconstitution buffer (Cisbio Inc.) was added to each well. Following incubation for 3 hrs at room temperature, Homogeneous Time-Resolved Fluorescence (HTRF) was measured using the Envision (Perkin Elmer) at 665 nm and […]. The ratio of fluorescence at 665 nm to 620 nm was used as a readout for IL6 quantification. All samples were processed in duplicate. Readings were normalized to DMSO treated cells and normalized activities were utilized for EC50 calculations using the dose-response log (inhibitor) vs. response-variable slope (four parameters) nonlinear regression feature available in GraphPad Prism 5.0 (or Dotmatics).

EC50 [1] | EC50 (SW480 colon cancer cells) | EC50 [3] | EC50 (IL-6 (THP-1 cells)) | Structure (SMILES) | EC50 [2] | Emax [3] | inhibition at 10 µM (IL-6 (THP-1 cells)) | inhibition at 10 µM [1] | inhibition at 10 µM (SW480 colon cancer cells)
305 nM | 931 nM | 30 nM | 733 nM | CCC(=O)Nc1cncc(-c2cc3c(-c4cc5c(-c6cccc(F)c6)nccc5[nH]4)n[nH]c3cn2)c1 [Compound 1, N-(5-(3-(4-(3-Fluorophenyl)-1H-pyrrolo[3,2-c]pyridin-2-yl)-1H-pyrazolo[3,4-c]pyridin-5-yl)pyridin-3-yl)propionamide] | 235 nM | 51% | – | – | –
500 nM | 867 nM | 300 nM | 649 nM | Fc1cccc(-c2nccc3[nH]c(-c4n[nH]c5cnc(-c6cccnc6)cc45)cc23)c1 [Compound 4, 3-(4-(3-Fluorophenyl)-1H-pyrrolo[3,2-c]pyridin-2-yl)-5-(pyridin-3-yl)-1H-pyrazolo[3,4-c]pyridine] | 20 nM | 114% | – | – | –
1850 nM | 1730 nM | 30 nM | 425 nM | CN(C)Cc1cncc(-c2cc3c(-c4cc5c(-c6cccc(F)c6)nccc5[nH]4)n[nH]c3cn2)c1 [Compound 13, 1-(5-(3-(4-(3-Fluorophenyl)-1H-pyrrolo[3,2-c]pyridin-2-yl)-1H-pyrazolo[3,4-c]pyridin-5-yl)pyridin-3-yl)-N,N-dimethylmethanamine] | 9 nM | 60% | – | – | –
289 nM | 298 nM | 900 nM | 669 nM | CC(C)CC(=O)Nc1cncc(-c2cc3c(-c4cc5c(-c6ccc(F)cc6)nccc5[nH]4)n[nH]c3cn2)c1 [Compound 30, N-(5-(3-(4-(4-Fluorophenyl)-1H-pyrrolo[3,2-c]pyridin-2-yl)-1H-pyrazolo[3,4-c]pyridin-5-yl)pyridin-3-yl)-3-methylbutanamide] | 356 nM | 71% | – | – | –
595 nM | 716 nM | – | 489 nM | Cc1ccncc1-c1cc2c(-c3cc4c(-c5ccc(F)cc5)nccc4[nH]3)n[nH]c2cn1 [Compound 33, 3-(4-(4-Fluorophenyl)-1H-pyrrolo[3,2-c]pyridin-2-yl)-5-(4-methylpyridin-3-yl)-1H-pyrazolo[3,4-c]pyridine] | 266 nM | 24% | – | – | –
844 nM | 666 nM | 30 nM | 1050 nM | O=C(Nc1cncc(-c2cc3c(-c4cc5c(-c6ccc(F)cc6)nccc5[nH]4)n[nH]c3cn2)c1)C1CC1 [Compound 48, N-(5-(3-(4-(4-Fluorophenyl)-1H-pyrrolo[3,2-c]pyridin-2-yl)-1H-pyrazolo[3,4-c]pyridin-5-yl)pyridin-3-yl)cyclopropanecarboxamide] | 404 nM | 96% | – | – | –
291 nM | 1100 nM | 10 nM | 468 nM | Fc1ccc(-c2nccc3[nH]c(-c4n[nH]c5cnc(-c6cncc(CN7CCC(F)(F)C7)c6)cc45)cc23)cc1 [Compound 54, 5-(5-((3,3-Difluoropyrrolidin-1-yl)methyl)pyridin-3-yl)-3-(4-(4-fluorophenyl)-1H-pyrrolo[3,2-c]pyridin-2-yl)-1H-pyrazolo[3,4-c]pyridine] | 28 nM | 61% | – | – | –
224 nM | 940 nM | 10 nM | 119 nM | Nc1cncc(-c2cc3c(-c4cc5c(-c6ccccc6F)nccc5[nH]4)n[nH]c3cn2)c1 [Compound 59, 5-(3-(4-(2-Fluorophenyl)-1H-pyrrolo[3,2-c]pyridin-2-yl)-1H-pyrazolo[3,4-c]pyridin-5-yl)pyridin-3-amine] | 5400 nM | 117% | – | – | –
1980 nM | 3160 nM | 10 nM | 2320 nM | Fc1ccccc1-c1nccc2[nH]c(-c3n[nH]c4cnc(-c5cncc(CN6CCCC6)c5)cc34)cc12 [Compound 70, 3-(4-(2-Fluorophenyl)-1H-pyrrolo[3,2-c]pyridin-2-yl)-5-(5-(pyrrolidin-1-ylmethyl)pyridin-3-yl)-1H-pyrazolo[3,4-c]pyridine] | 1250 nM | 69% | – | – | –
1030 nM | 1280 nM | 30 nM | 1090 nM | CC(C)(C)CC(=O)Nc1cncc(-c2cc3c(-c4cc5c(-c6ccccc6F)nccc5[nH]4)n[nH]c3cn2)c1 [Compound 72, N-(5-(3-(4-(2-fluorophenyl)-1H-pyrrolo[3,2-c]pyridin-2-yl)-1H-pyrazolo[3,4-c]pyridin-5-yl)pyridin-3-yl)-3,3-dimethylbutanamide] | 932 nM | 54% | – | – | –
1250 nM | 4280 nM | – | 2800 nM | O=C(Nc1cncc(-c2cc3c(-c4cc5c(-c6ccccc6F)nccc5[nH]4)n[nH]c3cn2)c1)C1CCC1 [Compound 77, N-(5-(3-(4-(2-Fluorophenyl)-1H-pyrrolo[3,2-c]pyridin-2-yl)-1H-pyrazolo[3,4-c]pyridin-5-yl)pyridin-3-yl)cyclobutanecarboxamide] | 2820 nM | 44% | – | – | –
2140 nM | 1600 nM | – | > 10000 nM | Fc1ccccc1-c1nccc2[nH]c(-c3n[nH]c4cnc(-c5cncnc5)cc34)cc12 [Compound 83, 3-(4-(2-Fluorophenyl)-1H-pyrrolo[3,2-c]pyridin-2-yl)-5-(pyrimidin-5-yl)-1H-pyrazolo[3,4-c]pyridine] | 1040 nM | 47% | 27.3% | – | –
> 10000 nM | > 10000 nM | – | > 10000 nM | CC(C)C(=O)Nc1cncc(-c2cc3c(-c4cc5c(-c6ccncc6)nccc5[nH]4)n[nH]c3cn2)c1 [Compound 121, N-(5-(3-(4-(Pyridin-4-yl)-1H-pyrrolo[3,2-c]pyridin-2-yl)-1H-pyrazolo[3,4-c]pyridin-5-yl)pyridin-3-yl)isobutyramide] | 9820 nM | 32% | 0% | 6.2% | 19.7%
> 10000 nM | > 10000 nM | – | > 10000 nM | CN1CCN(c2nccc3[nH]c(-c4n[nH]c5cnc(-c6cncc(NC(=O)CC7CCNCC7)c6)cc45)cc23)CC1 [Compound 641, N-(5-(3-(4-(4-Methylpiperazin-1-yl)-1H-pyrrolo[3,2-c]pyridin-2-yl)-1H-pyrazolo[3,4-c]pyridin-5-yl)pyridin-3-yl)-2-(piperidin-4-yl)acetamide] | 5120 nM | – | 14.4% | 7.9% | 4.4%
